Experiment [1] concerns the target T1, Serine/threonine-protein kinase Chk1 (Homo sapiens, UniProt O14757).
T1 sequence (O14757 whole entry): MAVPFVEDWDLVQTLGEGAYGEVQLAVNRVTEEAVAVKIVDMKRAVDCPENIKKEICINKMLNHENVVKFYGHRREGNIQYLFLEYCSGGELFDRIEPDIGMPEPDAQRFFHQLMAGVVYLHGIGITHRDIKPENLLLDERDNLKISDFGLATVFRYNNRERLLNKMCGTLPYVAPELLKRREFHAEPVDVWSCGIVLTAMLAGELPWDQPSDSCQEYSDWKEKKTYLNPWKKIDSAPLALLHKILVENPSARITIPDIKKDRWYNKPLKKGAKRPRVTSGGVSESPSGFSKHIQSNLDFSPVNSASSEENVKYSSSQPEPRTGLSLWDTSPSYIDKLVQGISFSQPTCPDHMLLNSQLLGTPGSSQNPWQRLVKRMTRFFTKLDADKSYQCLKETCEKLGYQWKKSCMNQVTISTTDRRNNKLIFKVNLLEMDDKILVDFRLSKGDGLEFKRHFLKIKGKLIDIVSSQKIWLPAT
The experiment can be described thus: Inhibition of Chk1.

For experiment [2], the target named is Calcium/calmodulin-dependent protein kinase type II subunit gamma (Homo sapiens) (UniProt Q13555).
Chain of Calcium/calmodulin-dependent protein kinase type II subunit gamma (Homo sapiens) (Q13555 whole entry): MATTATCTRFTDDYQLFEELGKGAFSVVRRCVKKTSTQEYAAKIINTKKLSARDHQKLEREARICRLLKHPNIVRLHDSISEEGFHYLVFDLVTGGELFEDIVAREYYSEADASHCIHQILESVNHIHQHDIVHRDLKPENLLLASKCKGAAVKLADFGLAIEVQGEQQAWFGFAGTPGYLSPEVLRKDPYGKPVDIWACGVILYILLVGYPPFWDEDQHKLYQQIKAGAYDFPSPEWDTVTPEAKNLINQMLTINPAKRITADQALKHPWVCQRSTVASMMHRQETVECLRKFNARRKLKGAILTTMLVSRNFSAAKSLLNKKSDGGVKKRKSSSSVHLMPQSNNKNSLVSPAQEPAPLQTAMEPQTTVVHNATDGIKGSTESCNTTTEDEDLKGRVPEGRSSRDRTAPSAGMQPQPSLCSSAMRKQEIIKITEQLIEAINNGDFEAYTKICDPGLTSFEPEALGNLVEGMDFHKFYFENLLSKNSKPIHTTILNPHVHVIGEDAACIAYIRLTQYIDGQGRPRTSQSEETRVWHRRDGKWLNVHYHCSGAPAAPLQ
Experiment [3] has as its target Dual specificity protein kinase CLK1 (Homo sapiens) (UniProt P49759).
Experiment [4] concerns the target Dual specificity protein kinase CLK3 (Homo sapiens) (UniProt P49761).
Experiment [5] deals with T2, Myotonin-protein kinase (Homo sapiens) (UniProt Q09013).
T2 sequence (whole entry): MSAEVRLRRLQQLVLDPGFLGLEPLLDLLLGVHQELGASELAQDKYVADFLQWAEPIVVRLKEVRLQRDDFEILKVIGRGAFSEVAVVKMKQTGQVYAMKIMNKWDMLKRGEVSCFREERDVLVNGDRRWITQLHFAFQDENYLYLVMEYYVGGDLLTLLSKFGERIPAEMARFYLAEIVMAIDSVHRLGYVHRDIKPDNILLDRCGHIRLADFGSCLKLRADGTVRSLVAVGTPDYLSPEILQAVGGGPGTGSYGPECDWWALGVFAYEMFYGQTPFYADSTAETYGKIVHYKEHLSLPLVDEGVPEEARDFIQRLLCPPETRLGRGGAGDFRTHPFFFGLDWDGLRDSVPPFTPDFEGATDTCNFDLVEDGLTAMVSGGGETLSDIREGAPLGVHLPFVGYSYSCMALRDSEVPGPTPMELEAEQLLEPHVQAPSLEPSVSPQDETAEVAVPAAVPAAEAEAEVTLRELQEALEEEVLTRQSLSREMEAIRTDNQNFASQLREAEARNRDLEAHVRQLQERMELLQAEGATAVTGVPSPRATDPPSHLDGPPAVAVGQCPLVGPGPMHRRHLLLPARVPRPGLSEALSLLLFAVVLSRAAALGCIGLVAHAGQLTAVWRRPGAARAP

The target of experiment [6] is Serine/threonine-protein kinase 10 (Homo sapiens) (UniProt O94804).
Chain of Serine/threonine-protein kinase 10 (Homo sapiens) (O94804 whole entry, looked up): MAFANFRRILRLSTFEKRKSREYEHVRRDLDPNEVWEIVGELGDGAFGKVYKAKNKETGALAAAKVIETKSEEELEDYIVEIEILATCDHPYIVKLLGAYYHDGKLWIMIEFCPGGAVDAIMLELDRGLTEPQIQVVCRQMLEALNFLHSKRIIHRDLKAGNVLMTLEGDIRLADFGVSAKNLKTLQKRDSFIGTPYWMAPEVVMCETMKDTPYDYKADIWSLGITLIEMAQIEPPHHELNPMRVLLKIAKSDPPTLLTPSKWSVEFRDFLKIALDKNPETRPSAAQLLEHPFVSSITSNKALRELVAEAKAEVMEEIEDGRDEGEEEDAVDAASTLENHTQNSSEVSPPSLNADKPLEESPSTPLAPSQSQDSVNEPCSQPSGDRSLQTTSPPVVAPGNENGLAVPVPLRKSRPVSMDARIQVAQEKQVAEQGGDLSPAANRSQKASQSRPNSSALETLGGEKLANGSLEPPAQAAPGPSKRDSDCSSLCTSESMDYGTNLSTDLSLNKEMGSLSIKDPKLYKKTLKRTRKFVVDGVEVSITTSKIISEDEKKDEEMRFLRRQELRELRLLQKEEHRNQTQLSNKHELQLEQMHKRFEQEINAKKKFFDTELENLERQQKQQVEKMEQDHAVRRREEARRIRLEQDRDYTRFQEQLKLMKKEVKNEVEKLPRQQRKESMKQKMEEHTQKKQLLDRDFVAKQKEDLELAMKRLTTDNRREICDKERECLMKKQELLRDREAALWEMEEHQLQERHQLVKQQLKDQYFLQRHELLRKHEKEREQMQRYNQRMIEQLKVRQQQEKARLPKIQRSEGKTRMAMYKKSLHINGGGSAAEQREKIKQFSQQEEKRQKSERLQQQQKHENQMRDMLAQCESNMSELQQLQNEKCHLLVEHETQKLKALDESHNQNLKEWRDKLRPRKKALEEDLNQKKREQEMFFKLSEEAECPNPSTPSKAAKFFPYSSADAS
Experiment [7] has as its target T3, Serine/threonine-protein kinase 4 (Homo sapiens) (UniProt Q13043).
T3 sequence (whole entry): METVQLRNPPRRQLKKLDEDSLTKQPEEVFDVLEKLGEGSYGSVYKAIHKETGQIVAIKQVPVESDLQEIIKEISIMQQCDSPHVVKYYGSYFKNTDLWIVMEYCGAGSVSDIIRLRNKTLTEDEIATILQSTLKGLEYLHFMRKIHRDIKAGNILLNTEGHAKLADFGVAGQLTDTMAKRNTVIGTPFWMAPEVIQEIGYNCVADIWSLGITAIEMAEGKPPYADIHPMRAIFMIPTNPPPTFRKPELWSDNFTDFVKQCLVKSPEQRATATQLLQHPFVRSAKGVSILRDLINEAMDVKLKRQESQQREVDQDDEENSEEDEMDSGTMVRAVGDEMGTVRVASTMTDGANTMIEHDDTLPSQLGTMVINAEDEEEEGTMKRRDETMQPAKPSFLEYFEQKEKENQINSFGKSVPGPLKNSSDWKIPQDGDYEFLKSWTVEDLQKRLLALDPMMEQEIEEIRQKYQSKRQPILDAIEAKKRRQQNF

In experiment [8] the target is Mitogen-activated protein kinase 3 (Homo sapiens, UniProt P27361). The experiment is described as follows: Inhibition of ERK1.
Chain of Mitogen-activated protein kinase 3 (P27361 whole entry): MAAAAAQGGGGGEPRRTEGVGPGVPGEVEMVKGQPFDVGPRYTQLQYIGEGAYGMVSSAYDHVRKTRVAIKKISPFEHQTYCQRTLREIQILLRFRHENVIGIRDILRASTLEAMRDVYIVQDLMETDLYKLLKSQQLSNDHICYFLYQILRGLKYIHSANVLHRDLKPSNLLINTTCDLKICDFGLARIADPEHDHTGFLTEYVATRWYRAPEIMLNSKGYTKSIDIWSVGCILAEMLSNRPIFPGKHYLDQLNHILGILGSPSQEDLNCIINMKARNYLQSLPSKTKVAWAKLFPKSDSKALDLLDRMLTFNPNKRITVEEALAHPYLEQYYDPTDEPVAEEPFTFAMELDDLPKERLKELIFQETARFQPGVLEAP
The target in experiment [9] is Mast/stem cell growth factor receptor Kit (Homo sapiens, UniProt P10721). The experiment can be described thus: Inhibition of c-kit.
Chain of Mast/stem cell growth factor receptor Kit (P10721 whole entry): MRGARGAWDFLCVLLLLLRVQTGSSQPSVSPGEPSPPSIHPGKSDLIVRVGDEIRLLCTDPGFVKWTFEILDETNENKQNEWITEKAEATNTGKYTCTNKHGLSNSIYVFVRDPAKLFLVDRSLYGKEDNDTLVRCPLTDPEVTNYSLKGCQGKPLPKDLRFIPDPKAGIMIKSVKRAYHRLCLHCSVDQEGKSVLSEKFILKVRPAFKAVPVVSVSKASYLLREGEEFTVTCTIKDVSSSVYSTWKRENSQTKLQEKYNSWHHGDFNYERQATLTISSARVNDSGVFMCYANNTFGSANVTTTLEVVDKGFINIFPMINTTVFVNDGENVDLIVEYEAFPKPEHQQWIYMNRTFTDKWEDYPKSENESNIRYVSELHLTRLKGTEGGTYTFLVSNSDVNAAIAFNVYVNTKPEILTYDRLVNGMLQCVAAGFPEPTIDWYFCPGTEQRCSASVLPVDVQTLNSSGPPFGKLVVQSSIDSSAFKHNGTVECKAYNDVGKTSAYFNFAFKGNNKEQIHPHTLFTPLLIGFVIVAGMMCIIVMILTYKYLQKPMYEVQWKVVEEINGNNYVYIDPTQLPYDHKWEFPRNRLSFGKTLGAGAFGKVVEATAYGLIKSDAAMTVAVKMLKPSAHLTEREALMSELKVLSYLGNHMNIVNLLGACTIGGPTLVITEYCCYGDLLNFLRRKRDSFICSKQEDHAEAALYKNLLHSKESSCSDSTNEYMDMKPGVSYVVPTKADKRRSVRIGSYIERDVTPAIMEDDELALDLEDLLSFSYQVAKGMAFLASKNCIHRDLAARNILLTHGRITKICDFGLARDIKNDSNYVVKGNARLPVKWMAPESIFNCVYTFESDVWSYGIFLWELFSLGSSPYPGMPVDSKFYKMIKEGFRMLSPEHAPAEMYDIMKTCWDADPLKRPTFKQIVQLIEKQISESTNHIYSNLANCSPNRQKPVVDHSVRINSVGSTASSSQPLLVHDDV
The target in experiment [10] is Proto-oncogene tyrosine-protein kinase Src (Homo sapiens, UniProt P12931). The experiment can be described thus: Inhibition of Src. The note with it: read-out: IC50.
Chain of Proto-oncogene tyrosine-protein kinase Src (P12931 2-536 limits assumed): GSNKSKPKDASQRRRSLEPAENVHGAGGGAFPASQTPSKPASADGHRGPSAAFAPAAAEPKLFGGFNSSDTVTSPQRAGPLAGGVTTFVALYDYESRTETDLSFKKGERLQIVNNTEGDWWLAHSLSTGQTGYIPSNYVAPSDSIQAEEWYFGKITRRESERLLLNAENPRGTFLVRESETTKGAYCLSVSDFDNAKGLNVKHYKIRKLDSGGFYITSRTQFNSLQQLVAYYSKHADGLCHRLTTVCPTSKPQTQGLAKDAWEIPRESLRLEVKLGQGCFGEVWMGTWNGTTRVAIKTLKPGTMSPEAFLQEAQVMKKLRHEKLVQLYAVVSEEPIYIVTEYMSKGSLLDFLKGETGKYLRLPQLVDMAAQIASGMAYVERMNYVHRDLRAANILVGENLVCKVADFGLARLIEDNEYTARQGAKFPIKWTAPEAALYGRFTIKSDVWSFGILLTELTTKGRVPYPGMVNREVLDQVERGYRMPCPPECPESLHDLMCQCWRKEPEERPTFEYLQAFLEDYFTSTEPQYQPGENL
Experiment [11] has as its target Dual specificity mitogen-activated protein kinase kinase 4 (Homo sapiens, UniProt P45985). The experiment is described as follows: Inhibition of MKK4.

The values that follow come from ChEMBL document CHEMBL1145498, “A systematic interaction map of validated kinase inhibitors with Ser/Thr kinases” (Proc Natl Acad Sci U S A, 2007).

Chain of Dual specificity protein kinase CLK3 (Homo sapiens) (P49761 whole entry, looked up): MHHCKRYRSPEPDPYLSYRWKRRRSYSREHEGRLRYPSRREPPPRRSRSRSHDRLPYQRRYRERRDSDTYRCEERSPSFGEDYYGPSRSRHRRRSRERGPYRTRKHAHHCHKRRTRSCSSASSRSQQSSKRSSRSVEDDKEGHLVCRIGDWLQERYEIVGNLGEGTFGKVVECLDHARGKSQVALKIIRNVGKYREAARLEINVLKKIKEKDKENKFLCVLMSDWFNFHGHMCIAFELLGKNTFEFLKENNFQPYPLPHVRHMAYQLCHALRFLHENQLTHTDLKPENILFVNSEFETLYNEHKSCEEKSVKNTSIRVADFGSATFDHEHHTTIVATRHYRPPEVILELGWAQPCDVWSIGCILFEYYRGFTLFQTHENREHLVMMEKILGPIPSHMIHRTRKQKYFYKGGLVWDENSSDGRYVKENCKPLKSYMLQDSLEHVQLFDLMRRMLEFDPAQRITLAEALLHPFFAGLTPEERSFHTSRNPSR
Chain of Dual specificity protein kinase CLK1 (Homo sapiens) (P49759 whole entry, looked up): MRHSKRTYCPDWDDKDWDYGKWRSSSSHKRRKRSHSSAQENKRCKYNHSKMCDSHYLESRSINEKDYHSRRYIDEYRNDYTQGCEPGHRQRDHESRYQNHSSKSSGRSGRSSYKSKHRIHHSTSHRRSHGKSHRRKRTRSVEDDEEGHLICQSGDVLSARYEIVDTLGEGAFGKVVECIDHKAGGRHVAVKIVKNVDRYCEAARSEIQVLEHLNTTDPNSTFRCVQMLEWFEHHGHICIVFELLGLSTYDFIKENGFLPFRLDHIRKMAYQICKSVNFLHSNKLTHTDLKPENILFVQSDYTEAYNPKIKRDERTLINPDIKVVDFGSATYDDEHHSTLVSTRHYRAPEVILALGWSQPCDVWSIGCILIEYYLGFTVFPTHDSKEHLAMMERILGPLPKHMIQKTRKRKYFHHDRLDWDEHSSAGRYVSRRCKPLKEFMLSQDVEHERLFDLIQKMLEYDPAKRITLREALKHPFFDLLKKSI
Chain of Dual specificity mitogen-activated protein kinase kinase 4 (P45985 whole entry): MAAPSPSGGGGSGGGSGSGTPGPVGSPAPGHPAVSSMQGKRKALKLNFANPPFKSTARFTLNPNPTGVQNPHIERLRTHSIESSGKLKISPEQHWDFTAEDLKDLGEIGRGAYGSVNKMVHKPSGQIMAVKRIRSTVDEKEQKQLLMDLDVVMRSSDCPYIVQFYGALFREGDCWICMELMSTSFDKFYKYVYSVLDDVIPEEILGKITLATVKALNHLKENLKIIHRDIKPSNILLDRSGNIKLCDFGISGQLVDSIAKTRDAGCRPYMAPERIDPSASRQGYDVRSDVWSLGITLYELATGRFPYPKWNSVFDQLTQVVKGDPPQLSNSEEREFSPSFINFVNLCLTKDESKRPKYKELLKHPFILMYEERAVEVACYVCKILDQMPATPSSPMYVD

Broadly, the IC50 is the concentration at which inhibition is half-maximal. As usually defined, the ΔTm is the change in melting temperature against a reference sample. For the compound `NC1=N/C(=C2/CCNC(=O)c3[nH]ccc32)C(=O)N1` [DEBROMOHYMENIALDISINE], in [1], half-maximal inhibition (IC50) was put at 3000 nM. The ΔTm in experiment [2] stood at 0.3 °C; in experiment [3] it was 6 °C; in experiment [4], 4.5 °C; in [5], 2.3 °C; in experiment [6] it was 1.7 °C; in experiment [7], 2.6 °C.

In the case of `c1ccc(-c2n[nH]c3c2oc2ccccc23)cc1`, the IC50 in [8] was not below 10000 nM; in experiment [9], 300 nM; in experiment [10], not below 10000 nM. In addition, the ΔTm in [2] is 0.4 °C; in experiment [3], 1.8 °C; in experiment [4] it was 0 °C; in experiment [5] it was 0 °C; in [6], 1.9 °C; in experiment [7], 4.3 °C.

Compound `O=C1NC(=O)c2c1c1c3ccccc3[nH]c1n1cncc21` [ISOGRANULATIMIDE] showed an IC50 in [1] of 100 nM. The ΔTm in [2] worked out at 2.5 °C; in experiment [3] it was 4.5 °C; in [4] it was 2.3 °C; in [5], 2.2 °C; in [6], 5.4 °C; in experiment [7] it was 2.5 °C.

In experiment [11], `C=CNC#N` returned an IC50 of more than 1000 nM. For the same compound, the ΔTm in [2] is 0.5 °C; in experiment [3] it was 0.8 °C; in [4], 0.2 °C; in experiment [5], 1.3 °C; in experiment [6], -0.3 °C; in experiment [7], 1.9 °C.

In experiment [9], `CCN(CC)CCNC(=O)c1c(C)[nH]c(/C=C2\C(=O)Nc3ccc(Cl)cc32)c1C` [SU-11652] registered an IC50 of 10 nM. The ΔTm was 6.2 °C in experiment [2]; 6.6 °C in [3]; 2.2 °C in experiment [4]; 2.9 °C in experiment [5]; 8.1 °C in experiment [6]; 10.2 °C in experiment [7].

`N#C/C(=C(/N)Sc1ccc(N)cc1)c1ccccc1C(F)(F)F`: the IC50 in [11] and in experiment [8] was more than 10000 nM throughout. Besides, the ΔTm in experiment [2] was determined as 0.1 °C; in [3], 0.1 °C; in experiment [4], 0 °C; in [5], 0.3 °C; in experiment [6], 0.4 °C; in experiment [7], 0.8 °C.

In experiment [9], `CCCNC(=O)Nc1ccc(Oc2ncnc3cc(OC)c(OC)cc23)cc1Cl` [KRN-633] returned an IC50 of 4330 nM. Also, the ΔTm in [2] is 0.3 °C; in experiment [3], -1.7 °C; in experiment [4], 0.1 °C; in experiment [5] it was 0.6 °C; in experiment [6], 0.4 °C; in [7] it was 0.5 °C.

`CN1CCc2[nH]c(=S)c(C#N)c(-c3cccs3)c2C1` displayed an IC50 in experiment [1] of 1400 nM. Also, the ΔTm in experiment [2] was 1 °C; in experiment [3], 2.4 °C; in experiment [4], -0.2 °C; in [5], 7.8 °C; in [6], 7.2 °C.
